Counter-ions that a name gives are not always drawn. Active and inactive are the calls of the source.

The record followed here is ChEMBL document CHEMBL1201862, “PubChem BioAssay data set” (2004).

A short description of assay [1]: cytotoxicity in HMLE control line with eGFP shRNA, dose response, counter-screen for HMLE_sh_ECad selective toxicity project, cell-based, HMLE_sh_eGFP, luminescence (AID 463074).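 Note: HMLE human mammary epithelial cells expressing control shRNA against eGFP.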 It counts as functional, Homo sapiens.
The target in assay [2] is T1, Heat shock factor protein 1 (Mus musculus, UniProt P38532).
T1 sequence (P38532 whole entry): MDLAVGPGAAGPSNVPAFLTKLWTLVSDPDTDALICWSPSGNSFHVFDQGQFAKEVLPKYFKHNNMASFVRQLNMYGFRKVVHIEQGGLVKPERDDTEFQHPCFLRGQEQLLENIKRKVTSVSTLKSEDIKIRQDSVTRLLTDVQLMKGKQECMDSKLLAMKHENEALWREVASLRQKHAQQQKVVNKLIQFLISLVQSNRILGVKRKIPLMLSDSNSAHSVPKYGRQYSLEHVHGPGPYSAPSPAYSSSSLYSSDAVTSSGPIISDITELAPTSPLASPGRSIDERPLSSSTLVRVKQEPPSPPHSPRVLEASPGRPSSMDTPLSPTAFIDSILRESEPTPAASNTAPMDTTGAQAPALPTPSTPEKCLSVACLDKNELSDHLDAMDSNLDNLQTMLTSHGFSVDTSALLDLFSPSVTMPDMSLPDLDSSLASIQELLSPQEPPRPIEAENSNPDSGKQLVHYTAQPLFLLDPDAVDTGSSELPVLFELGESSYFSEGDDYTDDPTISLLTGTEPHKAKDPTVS
Briefly: inhibition of MG132-induced HSE-luciferase signal, confirmation, cell-based, NIH3T3, luminescence, dose retest (AID 2382).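 Note: NIH3T3 fibroblasts with HSF1-driven luciferase reporter stressed by proteasome inhibitor MG132; luminescence from HSF1-driven luciferase expression after 8 hours of MG132 stress.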 It counts as functional.

Assay [3] is described as follows: Luminescence Cell-Based Dose Retest to Confirm Inhibitors of Cancer Stem Cells. [Related pubchem assays (depositor defined):AID2717, AID2721]. It counts as functional. Conditions: Homo sapiens.
The test system of assay [4] is HEK293. Briefly: cells. It counts as functional, cell-based. Conditions: Homo sapiens.
Assay [5] has as its target T2, Nuclear receptor subfamily 0 group B member 1 (Homo sapiens, UniProt P51843).
T2 sequence (P51843 whole entry): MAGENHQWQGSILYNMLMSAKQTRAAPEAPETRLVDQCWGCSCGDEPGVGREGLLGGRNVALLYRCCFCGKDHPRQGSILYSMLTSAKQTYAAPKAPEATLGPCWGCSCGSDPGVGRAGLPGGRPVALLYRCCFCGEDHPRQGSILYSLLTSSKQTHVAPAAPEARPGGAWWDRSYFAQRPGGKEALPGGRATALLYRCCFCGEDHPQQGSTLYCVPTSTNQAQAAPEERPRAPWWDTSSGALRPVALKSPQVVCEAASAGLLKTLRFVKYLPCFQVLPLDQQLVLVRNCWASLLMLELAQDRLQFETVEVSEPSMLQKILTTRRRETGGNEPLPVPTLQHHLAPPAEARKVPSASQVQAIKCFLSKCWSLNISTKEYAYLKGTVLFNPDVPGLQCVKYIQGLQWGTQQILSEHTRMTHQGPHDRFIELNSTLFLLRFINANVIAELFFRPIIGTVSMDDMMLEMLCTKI
The assay can be described thus: Luminescence-based cell-based high throughput dose response assay for inhibitors of the orphan nuclear receptor subfamily 0, group B, member 1 (DAX1; NR0B1). [Related pubchem assays (depositor defined):AID504766, AID504790]. It counts as functional.

Assay [6] concerns the target Voltage-gated inwardly rectifying potassium channel KCNH2 (Homo sapiens, UniProt Q12809). Conditions: Potency.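 Note: confirmatory quantitative high-throughput screen measuring inhibition of hERG channel activity.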
Assay [7] can be described thus: HepG2 cell cytotoxicity, dose response, cytotoxicity control, ATP luminescence, cherry-pick, activator set 2 (AID 1053143). It counts as functional, cell-based.
Assay [8] can be described thus: cells. It counts as functional, cell-based.
The subject of assay [9] is H4. Briefly: Luminescence Cell-Based Dose Response HTS to Identify Activators of 5'UTR Stem-Loop Driven Prion Protein mRNA Translation in H4 Neuroglioblastoma Cells. [Related pubchem assays: 1829 (Project Summary), 1814 (Primary HTS)]. It counts as functional. Conditions: Homo sapiens.
Assay [10] has as its target T3, Oxysterols receptor LXR-beta (Homo sapiens, UniProt P55055).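 Note: agonist activity at LXR measured by a cell-based luminescence readout across a dose range, run as a counterscreen for daf-12 agonists; HEK293 cells with Gal4-LXR fusion and GAL4-driven luciferase reporter; potency for activation of Gal4-LXR reporter so compounds are agonists.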
T3 sequence (P55055 whole entry): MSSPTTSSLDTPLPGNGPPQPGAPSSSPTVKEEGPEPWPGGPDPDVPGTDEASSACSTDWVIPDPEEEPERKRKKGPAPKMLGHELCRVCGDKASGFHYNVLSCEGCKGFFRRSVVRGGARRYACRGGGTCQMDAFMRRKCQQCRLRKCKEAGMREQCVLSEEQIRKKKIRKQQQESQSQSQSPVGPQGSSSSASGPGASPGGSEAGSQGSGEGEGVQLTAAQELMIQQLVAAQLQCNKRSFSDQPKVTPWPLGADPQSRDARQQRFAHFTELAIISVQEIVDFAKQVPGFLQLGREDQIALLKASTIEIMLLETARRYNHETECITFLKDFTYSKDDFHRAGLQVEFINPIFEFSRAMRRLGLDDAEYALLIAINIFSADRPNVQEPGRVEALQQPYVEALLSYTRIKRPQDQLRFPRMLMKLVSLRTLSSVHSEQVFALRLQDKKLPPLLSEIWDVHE
It counts as functional, cell-based.

Assay [11] in a line: Luminescence Cell-Based Dose Response HTS to Identify Activators of Luciferase Translation or Activity in H4 […] Cells. [Related pubchem assays: 1829 (Project Summary), 1814 (Primary HTS)]. It counts as functional.
Assay [12] in a line: cells. It counts as functional, cell-based. This is another data set of the same source.
Assay [13] is described as follows: Luminescence Cell-Based Dose Confirmation HTS to Identify Activators of 5'UTR Stem-Loop Driven Alpha-Synuclein mRNA Translation in H4 Neuroglioblastoma Cells. [Related pubchem assays: 1829 (Project Summary), 1814 (Primary HTS)]. It counts as functional.
Assay [14] deals with A-375. Briefly: MITF: Counter assay: A375 proliferation Measured in Cell-Based System Using Plate Reader - 2084-03_Inhibitor_Dose_DryPowder_Activity. [Related pubchem assays (depositor defined):AID488944]. It counts as functional. Conditions: Homo sapiens.
The target in assay [15] is T4, Polyadenylate-binding protein 1 (Homo sapiens, UniProt P11940). The assay can be described thus: PABP1 MLLE–PAM2 binding inhibitor potency, dose response, biochemical, fluorescence polarization, FITC-PAM2 peptide (AID 602259). Conditions: read-out: IC50_Mean. It counts as functional.
In assay [16] the test system is A-375. The assay can be described thus: A375 melanoma cell viability reduction, dose response, counter-screen for MITF modulator project, cherry-pick samples, set 2 (AID 540335). It counts as functional, cell-based. The following applies: Homo sapiens. (In general: Counterscreens check selectivity or assay interference.)
In assay [17] the target is T5, Microphthalmia-associated transcription factor (Homo sapiens, UniProt O75030).
T5 sequence (O75030 whole entry): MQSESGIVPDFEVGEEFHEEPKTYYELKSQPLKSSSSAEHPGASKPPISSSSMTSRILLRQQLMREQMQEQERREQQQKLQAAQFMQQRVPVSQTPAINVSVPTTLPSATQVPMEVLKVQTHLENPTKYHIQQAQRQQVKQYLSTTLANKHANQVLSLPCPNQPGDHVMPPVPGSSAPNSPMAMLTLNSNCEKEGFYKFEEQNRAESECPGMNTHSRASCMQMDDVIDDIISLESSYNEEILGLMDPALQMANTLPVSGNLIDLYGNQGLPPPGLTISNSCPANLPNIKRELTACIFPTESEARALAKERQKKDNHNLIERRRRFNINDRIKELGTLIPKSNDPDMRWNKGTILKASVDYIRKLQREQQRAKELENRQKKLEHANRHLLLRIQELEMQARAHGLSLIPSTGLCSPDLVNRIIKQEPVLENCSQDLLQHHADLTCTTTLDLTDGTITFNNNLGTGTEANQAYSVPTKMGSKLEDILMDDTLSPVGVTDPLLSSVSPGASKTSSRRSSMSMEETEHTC
Briefly: TRPM1 promoter luciferase signal decrease, dose response, MITF inhibitor project, cell-based, SK-MEL-5, cherry-picked, set 3 (AID 493073).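 Note: SK-MEL-5 melanoma cells with luciferase driven by the MITF target TRPM1 promoter.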 It counts as functional.

Assay [18] has as its target T4, Polyadenylate-binding protein 1. The assay can be described thus: PABP1 MLLE–PAM2 interaction inhibitors, dose response, miRNA deadenylation inhibitor project, biochemical, fluorescence polarization, Cy5-PAM2 peptide, secondary (AID 602260). It counts as functional. Conditions: read-out: IC50_Mean. On the technique in general: Polarisation of emitted light reports the rotation of a fluorescent probe.

In assay [19] the target is Beta-galactosidase (Escherichia coli, UniProt Q8VNN2). The assay can be described thus: beta-galactosidase enzyme inhibitors and activators, dose response, artefact control for CCR6 antagonist project, biochemical, E. coli enzyme, set 3 (AID 504712). It counts as functional.
In assay [20] the target is Cytochrome P450 2C9 (Homo sapiens, UniProt P11712).
Assay [21] has as its system INS1. The assay can be described thus: beta cell apoptosis inhibitors, cytokine rescue, dose response, luminescence, retest (AID 449756).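 Note: cell death triggered by IL-1 beta plus TNF-alpha plus IFN-gamma mixture; protective hits raise ATP signal compared with cytokine alone wells.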 It counts as functional, cell-based. The following applies: Rattus norvegicus.
In assay [22] the target is Glucose-6-phosphate 1-dehydrogenase (Homo sapiens, UniProt P11413). The assay can be described thus: human G6PD enzyme inhibitors, dose response, selectivity assay for P. falciparum G6PD inhibitor project, biochemical, fluorescence (AID 504792). It counts as functional.
Assay [23] has as its target FAD-linked sulfhydryl oxidase ALR (Homo sapiens, UniProt P55789). The assay can be described thus: inhibitors of human ALR sulfhydryl oxidase, dose response, biochemical, H2O2 detection, luminescence, cherry-pick (AID 493248).
The target in assay [24] is DNA dC->dU-editing enzyme APOBEC-3A (Homo sapiens, UniProt P31941). Briefly: Dose Response confirmation of small molecule APOBEC3A DNA Deaminase Inhibitors via a fluorescence-based single-stranded DNA deaminase assay. [Related pubchem assays (depositor defined):AID493011, AID493024]. It counts as functional.
The target of assay [25] is T6, Ubiquitin-conjugating enzyme E2 N (Homo sapiens, UniProt P61088).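 Note: Dose-response confirmation in a TR-FRET assay detecting UBC13-driven polyubiquitin chain formation, inhibition measured.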
T6 sequence (P61088 whole entry): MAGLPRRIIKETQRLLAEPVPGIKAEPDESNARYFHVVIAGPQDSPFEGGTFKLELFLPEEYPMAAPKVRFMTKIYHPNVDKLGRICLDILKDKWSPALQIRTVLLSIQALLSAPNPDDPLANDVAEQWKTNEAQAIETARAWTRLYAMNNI
It counts as functional.

The target of assay [26] is DNA dC->dU-editing enzyme APOBEC-3G (Homo sapiens, UniProt Q9HC16). It counts as functional.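 Note: Dose-response counterscreen measuring inhibition of APOBEC3G DNA deaminase activity, run while confirming APOBEC3A inhibitors.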
Sequence of DNA dC->dU-editing enzyme APOBEC-3G (Q9HC16 whole entry): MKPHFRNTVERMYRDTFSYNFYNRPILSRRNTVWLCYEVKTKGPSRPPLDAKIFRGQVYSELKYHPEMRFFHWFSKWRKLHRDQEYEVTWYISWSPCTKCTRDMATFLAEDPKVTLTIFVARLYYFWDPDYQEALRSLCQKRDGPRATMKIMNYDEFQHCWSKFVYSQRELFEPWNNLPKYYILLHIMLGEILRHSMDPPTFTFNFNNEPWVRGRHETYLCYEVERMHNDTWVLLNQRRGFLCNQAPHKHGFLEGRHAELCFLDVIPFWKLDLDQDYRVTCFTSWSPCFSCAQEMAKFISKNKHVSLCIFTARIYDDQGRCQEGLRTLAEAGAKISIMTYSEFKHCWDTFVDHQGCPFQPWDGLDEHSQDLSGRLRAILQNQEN

T4 sequence (P11940 whole entry): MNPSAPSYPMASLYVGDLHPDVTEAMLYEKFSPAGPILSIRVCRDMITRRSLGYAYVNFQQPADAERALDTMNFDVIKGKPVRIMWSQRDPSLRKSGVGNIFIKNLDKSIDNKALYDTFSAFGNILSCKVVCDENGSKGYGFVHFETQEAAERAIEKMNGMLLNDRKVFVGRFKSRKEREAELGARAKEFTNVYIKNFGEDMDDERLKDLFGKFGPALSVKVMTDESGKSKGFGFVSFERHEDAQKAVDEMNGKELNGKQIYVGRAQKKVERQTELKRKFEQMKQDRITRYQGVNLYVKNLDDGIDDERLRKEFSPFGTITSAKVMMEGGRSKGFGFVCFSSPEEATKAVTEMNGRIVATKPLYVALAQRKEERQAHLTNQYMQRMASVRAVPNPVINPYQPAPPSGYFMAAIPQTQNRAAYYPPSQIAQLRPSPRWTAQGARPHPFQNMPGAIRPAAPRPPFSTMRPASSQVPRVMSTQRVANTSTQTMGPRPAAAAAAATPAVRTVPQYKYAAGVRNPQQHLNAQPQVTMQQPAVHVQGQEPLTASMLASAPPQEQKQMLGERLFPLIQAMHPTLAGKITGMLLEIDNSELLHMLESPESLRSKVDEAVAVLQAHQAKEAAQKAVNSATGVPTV
Sequence of Voltage-gated inwardly rectifying potassium channel KCNH2 (Q12809 whole entry): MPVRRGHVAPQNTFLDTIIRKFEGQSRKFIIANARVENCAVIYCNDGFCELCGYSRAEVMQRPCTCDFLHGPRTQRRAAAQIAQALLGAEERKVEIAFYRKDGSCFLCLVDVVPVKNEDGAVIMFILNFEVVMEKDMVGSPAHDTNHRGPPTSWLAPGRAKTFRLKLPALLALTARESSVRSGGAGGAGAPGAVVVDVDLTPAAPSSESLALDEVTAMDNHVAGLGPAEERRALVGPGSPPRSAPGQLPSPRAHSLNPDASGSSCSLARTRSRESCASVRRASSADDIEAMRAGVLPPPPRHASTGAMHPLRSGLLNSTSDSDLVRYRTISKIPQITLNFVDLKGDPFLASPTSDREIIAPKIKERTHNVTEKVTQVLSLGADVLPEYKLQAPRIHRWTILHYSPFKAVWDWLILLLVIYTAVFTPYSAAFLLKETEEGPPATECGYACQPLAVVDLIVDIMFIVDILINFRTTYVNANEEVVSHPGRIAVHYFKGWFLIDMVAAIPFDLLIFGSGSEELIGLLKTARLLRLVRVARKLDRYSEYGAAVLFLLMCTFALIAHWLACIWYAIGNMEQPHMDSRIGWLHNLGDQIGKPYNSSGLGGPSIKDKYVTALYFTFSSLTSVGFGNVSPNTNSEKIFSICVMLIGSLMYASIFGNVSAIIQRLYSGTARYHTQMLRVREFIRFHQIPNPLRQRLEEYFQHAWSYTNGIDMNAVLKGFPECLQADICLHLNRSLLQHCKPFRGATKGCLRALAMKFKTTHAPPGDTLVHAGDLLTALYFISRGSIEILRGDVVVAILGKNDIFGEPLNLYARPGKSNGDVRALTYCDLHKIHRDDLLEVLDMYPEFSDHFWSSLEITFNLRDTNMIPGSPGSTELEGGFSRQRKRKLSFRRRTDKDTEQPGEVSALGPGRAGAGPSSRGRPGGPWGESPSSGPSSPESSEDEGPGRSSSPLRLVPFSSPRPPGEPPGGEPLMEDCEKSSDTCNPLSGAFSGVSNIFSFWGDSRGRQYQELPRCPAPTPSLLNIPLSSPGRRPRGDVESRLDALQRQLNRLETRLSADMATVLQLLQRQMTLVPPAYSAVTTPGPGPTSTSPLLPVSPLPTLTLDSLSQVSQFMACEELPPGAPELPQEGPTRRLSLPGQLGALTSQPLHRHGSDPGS
Sequence of Glucose-6-phosphate 1-dehydrogenase (P11413 whole entry): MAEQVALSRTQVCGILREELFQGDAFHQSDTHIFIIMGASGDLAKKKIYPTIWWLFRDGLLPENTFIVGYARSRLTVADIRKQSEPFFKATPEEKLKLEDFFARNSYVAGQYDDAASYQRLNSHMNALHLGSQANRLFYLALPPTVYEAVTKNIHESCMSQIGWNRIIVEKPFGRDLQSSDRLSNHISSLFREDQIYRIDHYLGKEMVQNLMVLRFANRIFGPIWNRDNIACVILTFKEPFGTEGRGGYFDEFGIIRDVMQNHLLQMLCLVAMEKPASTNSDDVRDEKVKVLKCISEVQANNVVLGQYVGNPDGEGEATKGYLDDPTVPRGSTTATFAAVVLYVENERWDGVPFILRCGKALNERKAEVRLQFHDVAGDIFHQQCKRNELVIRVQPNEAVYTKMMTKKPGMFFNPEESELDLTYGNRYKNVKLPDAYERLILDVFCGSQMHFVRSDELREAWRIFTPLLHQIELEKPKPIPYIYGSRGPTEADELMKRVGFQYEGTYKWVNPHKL
Sequence of Beta-galactosidase (Q8VNN2 whole entry): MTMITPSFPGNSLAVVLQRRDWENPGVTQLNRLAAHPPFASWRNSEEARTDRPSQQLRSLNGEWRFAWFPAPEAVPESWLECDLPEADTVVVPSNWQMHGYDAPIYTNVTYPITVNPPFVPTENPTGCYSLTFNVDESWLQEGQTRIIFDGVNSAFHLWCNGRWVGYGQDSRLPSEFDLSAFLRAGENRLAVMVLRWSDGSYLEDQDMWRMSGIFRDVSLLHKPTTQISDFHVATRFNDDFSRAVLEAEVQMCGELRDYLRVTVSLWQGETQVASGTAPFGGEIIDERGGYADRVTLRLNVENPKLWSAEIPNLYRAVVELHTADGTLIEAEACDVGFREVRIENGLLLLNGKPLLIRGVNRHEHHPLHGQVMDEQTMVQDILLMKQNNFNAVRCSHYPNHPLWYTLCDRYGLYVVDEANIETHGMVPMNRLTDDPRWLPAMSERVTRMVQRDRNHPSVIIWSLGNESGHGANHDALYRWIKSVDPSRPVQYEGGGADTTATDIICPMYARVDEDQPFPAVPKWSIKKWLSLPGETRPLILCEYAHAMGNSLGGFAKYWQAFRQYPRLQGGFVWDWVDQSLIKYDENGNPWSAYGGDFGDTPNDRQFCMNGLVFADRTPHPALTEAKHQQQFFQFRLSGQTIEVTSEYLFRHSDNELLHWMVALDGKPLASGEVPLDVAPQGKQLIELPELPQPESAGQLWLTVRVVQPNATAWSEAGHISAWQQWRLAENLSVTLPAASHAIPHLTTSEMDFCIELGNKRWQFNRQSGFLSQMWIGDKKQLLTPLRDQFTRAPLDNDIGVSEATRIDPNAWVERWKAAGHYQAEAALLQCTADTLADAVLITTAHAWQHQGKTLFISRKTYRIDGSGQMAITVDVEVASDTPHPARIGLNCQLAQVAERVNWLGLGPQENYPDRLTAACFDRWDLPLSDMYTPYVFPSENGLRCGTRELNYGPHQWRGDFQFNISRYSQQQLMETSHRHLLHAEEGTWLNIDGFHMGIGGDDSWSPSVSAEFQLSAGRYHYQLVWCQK
Sequence of FAD-linked sulfhydryl oxidase ALR (P55789 whole entry): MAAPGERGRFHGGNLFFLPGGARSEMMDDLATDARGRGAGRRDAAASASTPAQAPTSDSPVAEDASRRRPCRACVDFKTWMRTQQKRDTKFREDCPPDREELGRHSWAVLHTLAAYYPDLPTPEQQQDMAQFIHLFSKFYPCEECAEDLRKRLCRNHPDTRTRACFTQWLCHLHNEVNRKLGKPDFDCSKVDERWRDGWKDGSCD
Sequence of DNA dC->dU-editing enzyme APOBEC-3A (P31941 whole entry): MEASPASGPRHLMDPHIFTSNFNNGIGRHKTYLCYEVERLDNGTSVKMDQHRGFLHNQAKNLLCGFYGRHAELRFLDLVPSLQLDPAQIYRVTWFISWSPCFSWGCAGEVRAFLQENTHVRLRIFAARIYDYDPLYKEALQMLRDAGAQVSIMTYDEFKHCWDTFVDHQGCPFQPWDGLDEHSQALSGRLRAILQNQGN
Sequence of Cytochrome P450 2C9 (P11712 whole entry): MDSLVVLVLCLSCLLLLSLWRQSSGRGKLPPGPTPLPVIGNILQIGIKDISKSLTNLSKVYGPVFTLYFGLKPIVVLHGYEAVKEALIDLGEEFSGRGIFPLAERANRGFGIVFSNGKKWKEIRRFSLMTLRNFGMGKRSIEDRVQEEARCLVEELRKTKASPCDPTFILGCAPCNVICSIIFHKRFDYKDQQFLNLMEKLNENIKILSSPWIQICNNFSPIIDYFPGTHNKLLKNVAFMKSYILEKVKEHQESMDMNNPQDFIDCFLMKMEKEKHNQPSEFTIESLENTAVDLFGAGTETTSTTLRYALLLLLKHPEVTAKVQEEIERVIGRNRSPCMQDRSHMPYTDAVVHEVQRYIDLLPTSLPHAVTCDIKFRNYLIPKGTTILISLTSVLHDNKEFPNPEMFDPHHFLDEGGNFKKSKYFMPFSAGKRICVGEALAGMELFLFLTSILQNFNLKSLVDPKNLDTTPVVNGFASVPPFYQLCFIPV

In general, AC50 refers to the midpoint of the concentration-response curve, whichever way the signal moves. A word on the EC50: it is the midpoint of the concentration-response curve. For `CC(C)(C)c1ccc2c(c1)OC(C(=O)N/N=C\c1ccc[nH]1)CO2` (stereo unspecified), the AC50 was 23 µM (active) in assay [1] and 1.94 µM (active) in assay [3]. For the same compound, the EC50 in assay [2] was 0.436 µM (active).
In the case of `CCOC(=O)N1CCN(C(=O)COc2cc(=O)n(CC)c3ccccc23)CC1`, the IC50 in assay [4] and in [5] was > 67.5 µM (inactive) each time.
For `C#CCOC(=O)C1=CCCN(C)C1` [ARECAIDINE PROPARGYL ESTER HYDROBROMIDE], in assay [6], the AC50 is 35.5 µM (inconclusive).
Turning to `COC[C@H]1OC(=O)c2coc3c2[C@@]1(C)C1=C(C3=O)C2CCC(=O)[C@@]2(C)C[C@H]1OC(C)=O` (stereo partly specified), the AC50 in assay [6] was 17.8 µM (inconclusive).
For `O=C(Nc1ccccc1O)c1ccc(NS(=O)(=O)c2cccc3cccnc23)cc1`, the IC50 was 0.695 µM (active) in assay [4] and > 67.5 µM (inactive) in [5]. Besides, the AC50 in assay [7] is 9.01 µM (active). In addition, the EC50 was > 350 µM (not active) in [8]; 34 µM (active) in [9]; > 67.5 µM (inactive) in assay [10]; 10.7 µM (active) in assay [11]; 8.05 µM (active) in assay [12]; 11.2 µM (active) in assay [13].
With `O=C1NC(=S)NC(=O)C1=Cc1cccc2cc3ccccc3cc12`, the half-maximal activity concentration (AC50) in [14] was > 35 µM (active); in assay [16], > 35 µM (active); in assay [17] it was 4.81 µM (active); in [20], 3.16 µM (inconclusive). For the same compound, the IC50 was > 66 µM (inactive) in assay [15], > 66 µM (inactive) in assay [18] and > 66.6 µM (inactive) in assay [19].
As for `CC(C)Oc1ccc(C(CCN)C2CCCCC2)cc1` (stereo unspecified), the results for the AC50 in assay [14], in [17] and in assay [21] were 17.7 µM (active), 9.99 µM (active) and 7.47 µM (active), respectively.
As for `Oc1ccc(C23CC4CC(CC(C4)C2)C3)cc1O`, the IC50 in [22] was > 80 µM (inactive). In addition, the AC50 in [23] was 4.17 µM (active).
Turning to `COC(=O)C1=C(C)N(Cc2ccccc2)C(NCCc2cccnc2)=N[C@H]1c1ccc(Br)cc1`, the IC50 in assay [24] was 3.04 µM (active); in [25], > 20 µM (inactive); in assay [26], 4.68 µM (active). The half-maximal activity concentration (AC50) is > 11 µM (active) in assay [14], > 11 µM (active) in [16] and 17.8 µM (active) in [17].
In the case of `COc1ccc(CC(=O)NC2CCSc3ccccc32)c(OC)c1` (stereo unspecified), the IC50 in assay [4] and in assay [5] was > 67.6 µM (inactive) in each case.
